Legend:
[1] = test system: respiratory syncytial virus (RSV); test: Anti-RSV activity assay (RT-qPCR); format: cell-based; conditions: human respiratory syncytial virus, HEp-2 cells, mean ± SEM, read-out: Inhibition rate (%) of RSV replication
From the text: Remdesivir was selected and evaluated as a positive control.

[2] = test system: HepG2 (human liver carcinoma cell); test: CCK-8 anti-proliferation assay, HepG2; format: cell-based; conditions: for IC50: CCK-8, 48 h, read-out: IC50 against HepG2 cells
Description: (§1) One concentration was set for each sample during preliminary screening and three multiple holes were set for each concentration. Eight concentration gradients were set for each sample for IC50 determination and three multiple holes were set for each concentration. […] The absorbance was measured at 450 nm with an enzyme labeling instrument and the original data and results were recorded. […] Doxorubicin was used as a positive control. All the cancer cell lines were obtained from Qingdao AC biotechnology Co., LTD, Qingdao, China.

[3] = test system: 786-O (human renal cancer cell); test: CCK-8 anti-proliferation assay, 786-O; format: cell-based; conditions: 48 h, mean ± SEM, read-out: Inhibition Rate (%); for inhibition at 20 µM: 786-0, at 20 µM
Description: as §1

[4] = test system: SF126 (human glioblastoma cell); test: CCK-8 anti-proliferation assay, SF126; format: cell-based; conditions: 48 h, mean ± SEM, read-out: Inhibition Rate (%); for inhibition at 20 µM: SF-126, at 20 µM
Description: as §1

[5] = test system: HeLa (human cervical cancer cell); test: CCK-8 anti-proliferation assay, HeLa; format: cell-based; conditions: 48 h, mean ± SEM, read-out: Inhibition Rate (%)
Description: as §1

[6] = test system: MKN-45 (human gastric cancer cell); test: CCK-8 anti-proliferation assay, MKN-45; format: cell-based; conditions: 48 h, mean ± SEM, read-out: Inhibition Rate (%)
Description: as §1

[7] = test system: DU145 (human prostate carcinoma cell); test: CCK-8 anti-proliferation assay, DU145; format: cell-based; conditions: 48 h, mean ± SEM, read-out: Inhibition Rate (%); for inhibition at 20 µM: DU-145, at 20 µM
Description: as §1

[8] = test system: A-375 (human melanoma cell); test: CCK-8 anti-proliferation assay, A-375; format: cell-based; conditions: 48 h, mean ± SEM, read-out: Inhibition Rate (%)
Description: as §1

[9] = test system: HOS (human osteosarcoma cell); test: CCK-8 anti-proliferation assay, HOS; format: cell-based; conditions: 48 h, mean ± SEM, read-out: Inhibition Rate (%)
Description: as §1

[10] = test system: TE-1 (human esophageal cancer cell); test: CCK-8 anti-proliferation assay, TE-1; format: cell-based; conditions: 48 h, mean ± SEM, read-out: Inhibition Rate (%)
Description: as §1

[11] = test system: A549 (human lung adenocarcinoma cell); test: CCK-8 anti-proliferation assay, A549; format: cell-based; conditions: A549, 48 h, mean ± SEM, read-out: Inhibition Rate (%)
Description: as §1

[12] = test system: PATU8988T (human pancreatic cancer cell); test: CCK-8 anti-proliferation assay, PATU8988T; format: cell-based; conditions: PaTu 8988t, 48 h, mean ± SEM, read-out: Inhibition Rate (%)
Description: as §1

[13] = test system: MCF7 (human breast cancer cell); test: CCK-8 anti-proliferation assay, MCF7; format: cell-based; conditions: 48 h, mean ± SEM, read-out: Inhibition Rate (%)
Description: as §1

A-673 (Ewing sarcoma) = test: CCK-8 anti-proliferation assay, A-673; format: cell-based; conditions: Homo sapiens, 48 h, mean ± SEM, read-out: Inhibition Rate (%); for inhibition at 20 µM: A673, at 20 µM
Description: as §1

[14] = test system: L-02 (human hepatocyte cell); test: CCK-8 anti-proliferation assay, L-02; format: cell-based; conditions: L-02 normal liver cells, 48 h, mean ± SEM, read-out: Inhibition Rate (%)
Description: as §1

[15] = test system: HCT 116 (human colorectal cancer cell); test: CCK-8 anti-proliferation assay, HCT 116; format: cell-based; conditions: 48 h, mean ± SEM, read-out: Inhibition Rate (%)
Description: as §1

[16] = test system: K-562 (human myeloid leukemia cell); test: CCK-8 anti-proliferation assay, K-562; format: cell-based; conditions: 48 h, mean ± SEM; for inhibition at 20 µM: K562, at 20 µM; for Inhibition Rate (%): at 20 µM
Description: as §1

[17] = test system: 293T (human embryonic kidney cell); test: CCK-8 anti-proliferation assay, 293T; format: cell-based; conditions: HEK-293T, 48 h, mean ± SEM, read-out: Inhibition Rate (%)
Description: as §1

[18] = test system: CAL-62 (human thyroid anaplastic carcinoma cell); test: CCK-8 anti-proliferation assay, CAL-62; format: cell-based; conditions: 48 h, mean ± SEM, read-out: Inhibition Rate (%)
Description: as §1

[19] = test system: GBC-SD (human gallbladder carcinoma cell); test: CCK-8 anti-proliferation assay, GBC-SD; format: cell-based; conditions: 48 h, mean ± SEM, read-out: Inhibition Rate (%)
Description: as §1

[20] = test system: 5637 (HTB-9) (human bladder cancer cell); test: CCK-8 anti-proliferation assay, 5637 (HTB-9); format: cell-based; conditions: for IC50: CCK-8, 48 h, read-out: IC50 against 5637 (HTB-9) cells
Description: as §1

[21] = test system: respiratory syncytial virus (RSV); set-up: method as in PMID 24882250; conditions: read-out: anti-RSV IC50; cited from earlier work
[22] = 48 h, mean ± SEM, read-out: Inhibition Rate (%)
[23] = Homo sapiens, read-out: Inhibition Rate (%)
[24] = 5637 (HTB-9), 48 h, mean ± SEM, read-out: Inhibition Rate (%)

In the case of `C[C@@H](CO)CCC[C@@H](C)[C@H]1CC[C@H]2[C@@H]3CC=C4C[C@@H](O)CC[C@]4(C)[C@H]3CC[C@]12C` [compound 11, (3S,8S,9S,10R,13R,14S,17R)-17-((2R,6R)-7-Hydroxy-6-Methylheptan-2-yl)-10,13-Dimethyl-2,3,4,7,8,9,10,11,12,13,14,15,16,17-Tetradecahydro-1H-Cyclopenta[a]Phenanthren-3-ol], the inhibition at 10 µM [1] is reported as 22.2 ± 3.9%, the IC50 [2] is reported as 5.6 µM and the inhibition at 20 µM [2, 22] is reported as 64.2 ± 2.5%. For the same compound, the inhibition at 20 µM [3] was 65.9 ± 2.4%, the inhibition at 20 µM [4] was 11.7 ± 2.9% and the inhibition at 20 µM [5] was 14.9 ± 2.2%. It also gave an inhibition at 20 µM [6] of 53.8 ± 1.6%, an inhibition at 20 µM [7] of 18.4 ± 3.7% and an inhibition at 20 µM [8] of 60.8 ± 1.4%. It also gave an inhibition at 20 µM [9] of 9.3 ± 4.3%, an inhibition at 20 µM [10] of 27.7 ± 0.6% and an inhibition at 20 µM [11] of no more than 50%. It also gave an inhibition at 20 µM [12] of 63.3 ± 4.2%, an inhibition at 20 µM [13] of 14.1 ± 0.5% and an inhibition at 20 µM (A-673 (Ewing sarcoma)) of 26.5 ± 2.1%. It also gave an inhibition at 20 µM [14] of 2.8 ± 2.1%, an inhibition at 20 µM [15] of 19.8 ± 1.4% and an inhibition at 20 µM [16, 23] of 13.1 ± 1.8%. For the same compound, the “Inhibition Rate (%)” value [16] was “did not exhibit any anti-proliferative activities”, the inhibition at 20 µM [17] was -18.2 ± 1.3% and the inhibition at 20 µM [18] was 12.5 ± 3.9%. For the same compound, the inhibition at 20 µM [19] was 10.4 ± 3.3%, the inhibition at 20 µM [20, 24] was 80.5 ± 2.5% and the IC50 [20] was 3 µM.
In the case of `CC(=O)OC[C@@H](C)C/C=C/[C@@H](C)[C@H]1CC[C@H]2[C@@H]3CC(=O)[C@@]4(O)C[C@@H](O)CC[C@]4(C)[C@H]3CC[C@]12C` [compound 1], the IC50 [21] is given as 0.78 µM.
In the case of `CC(=O)OCC(C)/C=C/[C@@H](C)[C@H]1CC[C@H]2[C@@H]3CC(=O)[C@@]4(O)C[C@@H](O)CC[C@]4(C)[C@H]3CC[C@]12C` (stereo partly drawn) [compound 4], the IC50 [21] is given as 3.23 µM.
With `COc1cccc2c1C(=O)c1c(O)c3c(c(O)c1C2=O)C[C@@](O)(C(=O)CO)C[C@@H]3O[C@H]1C[C@H](N)[C@H](O)[C@H](C)O1` [Doxorubicin, reference compound] the inhibition at 10 µM ([2]; at 10 µM, 48 h, mean ± SEM, read-out: Inhibition Rate (%)) was 95.9 ± 1.9%, the inhibition at 10 µM ([3]; 786-0, at 10 µM) was 86.3 ± 1.9% and the inhibition at 10 µM ([4]; SF-126, at 10 µM) was 97.1 ± 1%. For the same compound, the inhibition at 10 µM ([5]; at 10 µM) was 97.7 ± 0.4%, the inhibition at 10 µM ([6]; at 10 µM) was 89.8 ± 0.5% and the inhibition at 10 µM ([7]; DU-145, at 10 µM) was 76.4 ± 1.6%. For the same compound, the inhibition at 10 µM ([8]; at 10 µM) was 95.3 ± 1%, the inhibition at 10 µM ([9]; at 10 µM) was 98.4 ± 0.9% and the inhibition at 10 µM ([10]; at 10 µM) was 83.3 ± 1.1%. The inhibition at 10 µM ([11]; at 10 µM) was 75.9 ± 2.5%, the inhibition at 10 µM ([12]; at 10 µM) was 98.4 ± 0.6% and the inhibition at 10 µM ([13]; at 10 µM) was 55.9 ± 1.7%. It also gave an inhibition at 10 µM (A-673 (Ewing sarcoma); A673, at 10 µM) of 98.7 ± 0.6%, an inhibition at 10 µM ([14]; at 10 µM) of 99.2 ± 0.1% and an inhibition at 10 µM ([15]; at 10 µM) of 88.9 ± 1.5%. The inhibition at 10 µM ([16]; Homo sapiens, K562, at 10 µM, read-out: Inhibition Rate (%)) was 67.5 ± 1%, the inhibition at 10 µM ([17]; at 10 µM) was 88.2 ± 1.2% and the inhibition at 10 µM ([18]; at 10 µM) was 92.6 ± 1.3%. It also gave an inhibition at 10 µM ([19]; at 10 µM) of 76.7 ± 1.5% and an inhibition at 10 µM ([20]; 5637 (HTB-9), at 10 µM, 48 h, mean ± SEM, read-out: Inhibition Rate (%)) of 99.3 ± 0.3%.
In the case of `C[C@@H](CO)CCC[C@@H](C)[C@H]1[C@@H](O)C[C@H]2[C@@H]3CC=C4C[C@@H](O)CC[C@]4(C)[C@H]3CC[C@]12C` [compound 8, (3S,8S,9S,10R,13S,14S,16S,17R)-17-((2R,6R)-7-Hydroxy-6-Methylheptan-2-yl)-10,13-Dimethyl-2,3,4,7,8,9,10,11,12,13,14,15,16,17-Tetradecahydro-1H-Cyclopenta[a]Phenanthrene-3,16-diol], the inhibition at 10 µM [1] is reported as 24.9 ± 2.6%, the IC50 [2] is reported as 12 µM and the inhibition at 20 µM [2, 22] is reported as 76.8 ± 1.3%. For the same compound, the inhibition at 20 µM [3] was 69 ± 1.8%, the inhibition at 20 µM [4] was 30.7 ± 2.4% and the inhibition at 20 µM [5] was 49.7 ± 3.6%. For the same compound, the inhibition at 20 µM [6] was 54.4 ± 1.9%, the inhibition at 20 µM [7] was 26 ± 1.7% and the inhibition at 20 µM [8] was 72.3 ± 0.6%. For the same compound, the inhibition at 20 µM [9] was 2.7 ± 4%, the inhibition at 20 µM [10] was 34 ± 3.8% and the inhibition at 20 µM [11] was 53 ± 2.7%. The inhibition at 20 µM [12] was 62.7 ± 2%, the inhibition at 20 µM [13] was 31.2 ± 1.4% and the inhibition at 20 µM (A-673 (Ewing sarcoma)) was 51.9 ± 2.8%. The inhibition at 20 µM [14] was 8.1 ± 1.3%, the inhibition at 20 µM [15] was 61.7 ± 2.1% and the inhibition at 20 µM [16, 23] was 7.2 ± 2.2%. For the same compound, the “Inhibition Rate (%)” value [16] was “did not exhibit any anti-proliferative activities”, the inhibition at 20 µM [17] was 42.4 ± 2.1% and the inhibition at 20 µM [18] was 28 ± 4%. For the same compound, the inhibition at 20 µM [19] was 26.8 ± 1.3%, the inhibition at 20 µM [20, 24] was 75.1 ± 0.8% and the IC50 [20] was 5.8 µM.
For `CC(=O)OC[C@@H](C)[C@H](C)/C=C/[C@@H](C)[C@H]1CC[C@H]2[C@@H]3CC(=O)[C@@]4(O)C[C@@H](O)CC[C@]4(C)[C@H]3CC[C@]12C` [compound 2], the IC50 [21] is given as 0.19 µM.
`CCC(CC)COC(=O)[C@H](C)N[P@](=O)(OC[C@H]1O[C@@](C#N)(c2ccc3c(N)ncnn23)[C@H](O)[C@@H]1O)Oc1ccccc1` [Remdesivir, reference compound] gave an inhibition at 10 µM [1] of 91.8 ± 0.5%.

Reference: article PMC10053440, “Semi-Synthesis and Biological Evaluation of 25(R)-26-Acetoxy-3β,5α-Dihydroxycholest-6-One” (Marine Drugs, 2023)
